The text below walks through data of patent US20050020576A1, “Kappa agonist compounds and pharmaceutical formulations thereof” (priority 1996, published 2005).

Structures are written as SMILES. Counter-ions that a name gives are not always drawn. Like-named read-outs stand apart in the source and are kept apart here.

The target in assay [1] is cloned human kappa receptor (Homo sapiens, UniProt P41145). Nature of the assay: biochemical. The assay is classed as binding.
Assay [2] deals with formalin-induced flinching. Description: animal or person. In kind it is in vivo, male Sprague-Dawley rats. Particulars: for Late Phase Formalin A50 / Late Phase Formalin (i. paw), % @ 300 / Formalin A50 mg/kg s.c. / Late Phase Formalin, % @ 300: rat, in vivo; for inhibition in vivo at 0.3 µM: Rattus norvegicus, read-out: Formalin (% A @ 300 nM) i. paw; for Formalin A50 mg/kg s.c.: sc.

cloned human kappa receptor, sequence (P41145 whole entry): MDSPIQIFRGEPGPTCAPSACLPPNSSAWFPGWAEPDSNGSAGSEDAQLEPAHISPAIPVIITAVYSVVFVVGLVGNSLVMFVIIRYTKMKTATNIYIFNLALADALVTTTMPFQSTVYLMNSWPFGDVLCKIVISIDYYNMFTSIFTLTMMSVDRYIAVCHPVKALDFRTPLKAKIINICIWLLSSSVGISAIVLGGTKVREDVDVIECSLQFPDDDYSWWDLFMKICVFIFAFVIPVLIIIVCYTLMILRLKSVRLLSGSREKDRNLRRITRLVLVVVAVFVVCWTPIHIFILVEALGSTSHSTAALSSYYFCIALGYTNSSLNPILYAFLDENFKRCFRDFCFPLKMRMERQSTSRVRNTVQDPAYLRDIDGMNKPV

In assay [1] (Ki (nM) [3H]-Diprenorphin κ), `CN(C(=O)Cc1ccc(Cl)c(Cl)c1)[C@H](CN1CCCC1)c1cccc(NS(N)(=O)=O)c1` (racemic) [Example 3c, 2-(3,4-Dichlorophenyl)-N-methyl-N-[(1R,S)-1-(3-sulfamidophenyl)-2-(1-pyrrolidinyl)ethyl]acetamide hydrochloride] displayed a Ki of 0.12 nM. Further, the “Late Phase Formalin A50” value in assay [2] came out at 0.27 mg/kg.
As for `COc1ccc(C(CN2CCCC2)N(C)C(=O)Cc2ccccc2NS(C)(=O)=O)cc1` (racemic) [Example 128], the Ki in assay [1] (Table IIIB, read-out: Ki(nM) [3H]-Diprenorphin κ) turned out to be 110 nM. Moreover, in assay [2], the “Late Phase Formalin (i. paw), % @ 300” value was determined as 56% @ 300.
Regarding `CN(C(=O)Cc1ccccc1NS(C)(=O)=O)C(CN1CCCC1)c1ccc(O)cc1` (racemic) [Example 129A, (R,S)-2-(2-N-Methylsulfonamido-2-aminophenyl)-N-methyl-N-1-(4-hydroxyphenyl)-2-(1-pyrrolidinyl)ethyl]acetamide], the Ki in assay [1] (Ki (nM) [3H]-Diprenorphin κ) came out at 59 nM. Further, the “Late Phase Formalin (i. paw), % @ 300” value in assay [2] amounted to 46% @ 300.
`CNS(=O)(=O)c1ccccc1CC(=O)N(C)C(CN1CCCC1)c1ccccc1F` (racemic) [Example 147] returned a Ki in assay [1] (Ki (nM) [3H]-Diprenorphin κ) of 10 nM. Moreover, the “Late Phase Formalin (i. paw), % @ 300” value in assay [2] came out at 56% @ 300.
In the case of `C=CCN1CCN(C(=O)Cc2ccc(Cl)c(Cl)c2)[C@H](CN2CCCC2)C1` [Example 1ff, 4-Allyl-1-[(3,4-dichlorophenyl)acetyl]-2-(R)-[(1-pyrrolidinyl)methyl]piperazine hydrochloride], the Ki in assay [1] (Ki, nM 3H-Diprenorphin) worked out at 0.58 nM. For the same compound, the inhibition in vivo at 0.3 µM in assay [2] came out at 98%.
The like results for `COC(=O)N1CCN(C(=O)Cc2ccc(Cl)c(Cl)c2)[C@@H](CN2CCC[C@H]2CO)C1` [Example 1ii, Methyl-4-[(3,4-dichlorophenyl)acetyl]-3-(S)-[(2-(S)-pyrrolidinemethanol)methyl]-1-piperazinecarboxlate hydrochloride] were, in that order, 21.5 nM and 60%.
In assay [1] (Ki, nM 3H-Diprenorphin), `CS(=O)(=O)O[C@H]1CCN(CC2CN(S(C)(=O)=O)CCN2C(=O)Cc2ccc(Cl)c(Cl)c2)C1` (stereo partly drawn) [Example 1jj, 4-Methanesulfonyl-1-[(3,4-dichlorophenyl)acetyl]-2-(R,S)-[3-(S)-methanesulfonate-1-(pyrrolidinyl)methyl]piperazine hydrochloride] yielded a Ki of 11.5 nM. In assay [2], the inhibition in vivo at 0.3 µM amounted to 49%.
`CS(=O)(=O)N1CCN(C(=O)Cc2ccc(Cl)c(Cl)c2)C(CN2CC[C@H](OC(=O)Cc3ccc(Cl)c(Cl)c3)C2)C1` (stereo partly drawn) [Example 1kk, 4-Methylsulphonyl-1-[(3,4-dichlorophenyl)acetyl]-2-(R,S)-[3-(S)-(3′,4′dichlorophenyl acetate)-1-(pyrrolidinyl)methyl]piperazine hydrochloride] yielded a Ki in assay [1] (Ki, nM 3H-Diprenorphin) of 5.1 nM. In addition, the inhibition in vivo at 0.3 µM in assay [2] was 52%.
Regarding `COC(=O)N1CCN(C(=O)Cc2ccc(Cl)c(Cl)c2)C(CN2CCCC2CO)C1` [Example 1l, Methyl-4-[(3,4-dichlorophenyl)acetyl]-3-(R)-[(2-(S)-pyrrolidinemethanol)methyl]-1-piperazinecarboxylate hydrochloride], affinity in assay [1] (Ki, nM 3H-Diprenorphin) was put at a Ki of 3.5 nM. In addition, in assay [2], the “Formalin A50 mg/kg s.c.” value was 1.7 mg/kg.
In turn, `CS(=O)(=O)N1CCN(C(=O)Cc2ccc(C(F)(F)F)cc2)C(CN2CC[C@H](O)C2)C1` (stereo partly drawn) [Example 1nn, 4-Methylsulphonyl-1-[(4-α,α,α-triflouromethylphenyl)acetyl]-2-(R,S)-[(3-(S)-hydroxy-1-pyrrolidinyl)methyl]piperazine hydrochloride] had a Ki in assay [1] (Ki, nM 3H-Diprenorphin) of 2.33 nM. In assay [2], the “Formalin A50 mg/kg s.c.” value came out at 7.1 mg/kg.
With `CCOP(=O)(Nc1cccc([C@@H](CN2CCCC2)N(C)C(=O)Cc2ccc(Cl)c(Cl)c2)c1)OCC` [Example 3g, 2-(3,4-Dichlorophenyl)-N-methyl-N-[(1S)-1-[3-(diethyl Phosphoryl)amino]phenyl)-2-(1-pyrrolidinyl)ethyl]acetamide hydrochloride], the affinity in assay [1] (Ki (nM) [3H]-Diprenorphin κ), expressed as Ki, was 0.12 nM. The “Late Phase Formalin A50” value in assay [2] is reported as 4.4 mg/kg.
For the compound `CC(C)COC(=O)CNC(=O)CCC(=O)Nc1cccc([C@@H](CN2CCCC2)N(C)C(=O)Cc2ccc(Cl)c(Cl)c2)c1` [Example 3i, 2-(3,4-Dichlorophenyl)-N-methyl-N-{(1S)-1-[3-(3-(((iso-butoxycarbonyl)-methyl)aminocarbonyl)propionamido)phenyl]-2-(1-pyrrolidinyl)ethyl}acetamide hydrochloride], in assay [1] (Ki (nM) [3H]-Diprenorphin κ), the Ki turned out to be 0.14 nM. Further, the “Late Phase Formalin, % @ 300” value in assay [2] stood at 23% @ 300.
The compound `CN(C(=O)Cc1ccc(Cl)c(Cl)c1)[C@H](CN1CCCC1)c1cccc(NC(=O)CCC(=O)NCC(=O)O)c1` [Example 3j, 2-(3,4-Dichlorophenyl)-N-methyl-N-{(1R,S)-1-[3-(3-(((hydroxycarbonyl)-methyl)aminocarbonyl)propionamido)phenyl]-2-(1-pyrrolidinyl)ethyl}acetamide hydrochloride] yielded a Ki in assay [1] (Ki (nM) [3H]-Diprenorphin κ) of 2.3 nM. For the same compound, the “Late Phase Formalin, % @ 300” value in assay [2] turned out to be 38% @ 300.
For `CNS(=O)(=O)c1cc(CC(=O)N(C)[C@H](CN2CCCC2)c2ccccc2)ccc1Cl.Cl` [Example 3l, 2-[3-(N-Methylsulfamoyl)-4-chlorophenyl]-N-methyl-N-{[1S]-1-phenyl-2-[1-pyrrolidinyl]ethyl}acetamide hydrochloride], the affinity in assay [1] (Ki (nM) [3H]-Diprenorphin κ), expressed as Ki, was 3.8 nM. Also, the “Late Phase Formalin, % @ 300” value in assay [2] stood at 73% @ 300.
In the case of `COC(=O)CNC(=O)c1ccccc1CC(=O)N(C)[C@H](CN1CCCC1)c1ccccc1` [Example 3mm, Methyl N-[2-(2-pheny)-N-methyl-N-{[1S]-1-phenyl-2-(1-pyrrolidinyl)ethyl}acetamido]2-oxo-glycinate hydrochloride], in assay [1] (Ki (nM) [3H]-Diprenorphin κ), the Ki came out at 16.4 nM. Also, in assay [2], the “Late Phase Formalin, % @ 300” value was 53% @ 300.
Taken in the same sequence, the figures for `CNS(=O)(=O)c1cccc(CC(=O)N(C)[C@H](CN2CCCC2)c2ccccc2)c1OC` [Example 3u] were 1 nM and 48% @ 300.
`COc1ccc(CC(=O)N(C)[C@H](CN2CCCC2)c2ccccc2)cc1NS(C)(=O)=O` [Example 122, 2-(3-N-Methylsulfonamido-3-amino-4-methoxyphenyl)-N-methyl-N-[(1S)-1-phenyl-2-(1-pyrrolidinyl)ethyl]acetamide methane sulfonate] yielded a Ki in assay [1] (Ki (nM) [3H]-Diprenorphin κ) of 0.8 nM. The “Late Phase Formalin (i. paw), % @ 300” value in assay [2] is given as 85% @ 300.
In the case of `CN(C(=O)Cc1ccc(OCc2ccccc2)c(NS(C)(=O)=O)c1)[C@H](CN1CCCC1)c1ccccc1` [Example 123, 2-(3-N-Methylsulfonamido-3-amino-4-benzyloxyphenyl)-N-methyl-N-[(1S)-1-phenyl-2-(1-pyrrolidinyl)ethyl]acetamide], in assay [1] (Ki (nM) [3H]-Diprenorphin κ), the Ki came to 23.6 nM. For the same compound, the “Late Phase Formalin (i. paw), % @ 300” value in assay [2] was found to be 87% @ 300.
As to `CN(C(=O)Cc1ccc(O)c(NS(C)(=O)=O)c1)[C@H](CN1CCCC1)c1ccccc1` [Example 124, 2-(3-N-Methylsulfonamido-3-amino-4-hydroxyphenyl)-N-methyl-N-[(1S)-1-phenyl-2-(1-pyrrolidinyl)ethyl]acetamide], the Ki in assay [1] (Ki (nM) [3H]-Diprenorphin κ) worked out at 5.6 nM. Moreover, in assay [2], the “Late Phase Formalin (i. paw), % @ 300” value came to 77% @ 300.
`CN(C(=O)Cc1ccccc1NS(C)(=O)=O)[C@H](CN1CC[C@H](O)C1)c1ccccc1` [Example 125, 2-(2-N-Methylsulfonamido-2-aminophenyl)-N-methyl-N-[(1S)-1-phenyl-2-[1-(3S)-(3-hydroxypyrrolidinyl)ethyl]]acetamide]: the Ki in assay [1] (Ki (nM) [3H]-Diprenorphin κ) came to 5.3 nM. In addition, the “Late Phase Formalin (i. paw), % @ 300” value in assay [2] turned out to be 81% @ 300.
Taken in the same sequence, the figures for `CN(C(=O)Cc1ccc(C(F)(F)F)cc1NS(C)(=O)=O)[C@H](CN1CC[C@H](O)C1)c1ccccc1` [Example 126, 2-(2-N-Methylsulfonamido-2-amino-4-trifluoromethylphenyl)-N-methyl-N-[(1S)-1-phenyl-2-[1-(3S)-(3-hydroxypyrrolidinyl)ethyl]]acetamide] were 0.61 nM and 93% @ 300.
`COc1ccc(CC(=O)N(C)[C@H](CN2CC[C@H](O)C2)c2ccccc2)cc1NS(C)(=O)=O` [Example 127, 2-(3-N-Methylsulfonamido-3-amino-4-methoxyphenyl)-N-methyl-N-[(1S)-1-phenyl-2-[1-(3S)-(3-hydroxypyrrolidinyl)ethyl]]acetamide] showed a Ki in assay [1] (Ki (nM) [3H]-Diprenorphin κ) of 0.82 nM. The “Late Phase Formalin (i. paw), % @ 300” value in assay [2] amounted to 94% @ 300.
Compound `CN(C(=O)Cc1ccc(O)c(N(S(C)(=O)=O)S(C)(=O)=O)c1)[C@H](CN1CCCC1)c1ccccc1` [Example 130, 2-(3-N-Bis-methylsulfonamido-3-amino-4-hydroxyphenyl)-N-methyl-N-[(1S)-1-phenyl-2-(1-pyrrolidinyl)ethyl]acetamide] registered a Ki in assay [1] (Ki (nM) [3H]-Diprenorphin κ) of 1.3 nM. Moreover, the “Late Phase Formalin (i. paw), % @ 300” value in assay [2] came out at 46% @ 300.
The like results for `CN(C(=O)Cc1cc2c(cc1S(=O)(=O)N(C)C)OCO2)[C@H](CN1CCCC1)c1ccccc1` [Example 132, 2-[2-(N-Dimethylsulfamoyl)-4,5-methylenedioxyphenyl]-N-methyl-N-[(1S)-1-phenyl-2-[(1-pyrrolidinyl)ethyl]]acetamide] were, in that order, 0.25 nM and 100% @ 300.
As to `CN(C(=O)Cc1cc2c(cc1S(=O)(=O)N(C)C)OCO2)[C@H](CN1CC[C@H](O)C1)c1ccccc1` [Example 133, 2-[2-(N-Dimethylsulfamoyl)-4,5-methylenedioxyphenyl]-N-methyl-N-[(1S)-1-phenyl-2-[1-(3S)-(3-hydroxypyrrolidinyl)ethyl]]acetamide], in assay [1] (read-out: Ki(nM) [3H]-Diprenorphin κ), the Ki is 0.64 nM. Besides, the “Late Phase Formalin (i. paw), % @ 300” value in assay [2] is 98% @ 300.
As to `COc1cc(CC(=O)N(C)[C@H](CN2CCCC2)c2ccccc2)c(S(=O)(=O)N2CCCC2)cc1OC` [Example 134, 2-[2-(N-Pyrrolidinesulfamoyl)-4,5-dimethoxyphenyl]-N-methyl-N-[(1S)-1-phenyl-2-[(1-pyrrolidinyl)ethyl]]acetamide], in assay [1] (Ki (nM) [3H]-Diprenorphin κ), the Ki was 0.26 nM. For the same compound, the “Late Phase Formalin (i. paw), % @ 300” value in assay [2] was found to be 99% @ 300.

In general, Ki refers to the dissociation constant of the complex between target and ligand, obtained from inhibition or displacement.
